Test results taken from patent US20140288043A1, “PYRAZOLOPYRIDINE COMPOUNDS” (Genentech, Inc., priority 2013, published 2014).

target: LRRK2 (Homo sapiens, UniProt Q5S007); test: LRRK2 protein kinase assay ([γ-33P] ATP, peptide substrate), KI values of Table 1; assay type: biochemical; conditions: LRRK2 affinity values
Excerpt: All LRRK2 protein kinases were of human origin and were sourced from Invitrogen Corporation (Carlsbad, Calif. 92008 USA) unless otherwise indicated. The active mutant used was recombinant human, catalytic domain (amino acids 970-2527) containing a G2019S mutation, GST-tagged, expressed in insect cells (Invitrogen Cat#PV4881). The wild type used was recombinant human, catalytic domain (amino acids 970-2527) GST-tagged, expressed in insect cells (Invitrogen Cat#PV4873). The kinase dead mutant used was recombinant human, catalytic domain (amino acids 970-2527) containing a D1994A mutation, GST-tagged, expressed in insect cells (Invitrogen Cat#PM4041AE). No special measures were taken to activate any of the kinases.
All assays were carried out at room temperature (˜21° C.) and were linear with respect to time and enzyme concentration under the conditions used. Assays were performed for 180 min in a 96 well format. LRRK2 was present at a concentration of approximately 5 nM. The enzyme was diluted and assayed in 50 mM Tris-HCl pH7.5, 0.1 mM EGTA, 1 mM DTT and 10 mM MgCl2. The concentration of magnesium chloride in the assay was 10 mM. The [γ-33P] ATP (0.4 μCi/well) was used at 134 uM for G2019S mutant and at 57 μM for the wild type kinase in order to be at Km. The peptide substrate in the assay was […] at 100 μM.
The assays were initiated with Mg/ATP and stopped by the addition of 25 μl/well 50% orthophosphoric acid. Reactions were harvested onto Whatman P81 Unifilter Plates (Fisher Scientific. Loughborough, LE115RG, UK. Cat# FDU-105-020U) using a Tomtec harvester. (Tomtec Hamden, Conn. 06514. USA) Plates were counted using a Perkin Elmer Top Count NX7. (Perkin Elmer, Shelton Conn. 06484-4794 USA)
IC50 values of inhibitors were determined after carrying out assays at 10 different concentrations of each compound in duplicate.

LRRK2, sequence (Q5S007 whole entry G2019S, form open, the tested form may be a part): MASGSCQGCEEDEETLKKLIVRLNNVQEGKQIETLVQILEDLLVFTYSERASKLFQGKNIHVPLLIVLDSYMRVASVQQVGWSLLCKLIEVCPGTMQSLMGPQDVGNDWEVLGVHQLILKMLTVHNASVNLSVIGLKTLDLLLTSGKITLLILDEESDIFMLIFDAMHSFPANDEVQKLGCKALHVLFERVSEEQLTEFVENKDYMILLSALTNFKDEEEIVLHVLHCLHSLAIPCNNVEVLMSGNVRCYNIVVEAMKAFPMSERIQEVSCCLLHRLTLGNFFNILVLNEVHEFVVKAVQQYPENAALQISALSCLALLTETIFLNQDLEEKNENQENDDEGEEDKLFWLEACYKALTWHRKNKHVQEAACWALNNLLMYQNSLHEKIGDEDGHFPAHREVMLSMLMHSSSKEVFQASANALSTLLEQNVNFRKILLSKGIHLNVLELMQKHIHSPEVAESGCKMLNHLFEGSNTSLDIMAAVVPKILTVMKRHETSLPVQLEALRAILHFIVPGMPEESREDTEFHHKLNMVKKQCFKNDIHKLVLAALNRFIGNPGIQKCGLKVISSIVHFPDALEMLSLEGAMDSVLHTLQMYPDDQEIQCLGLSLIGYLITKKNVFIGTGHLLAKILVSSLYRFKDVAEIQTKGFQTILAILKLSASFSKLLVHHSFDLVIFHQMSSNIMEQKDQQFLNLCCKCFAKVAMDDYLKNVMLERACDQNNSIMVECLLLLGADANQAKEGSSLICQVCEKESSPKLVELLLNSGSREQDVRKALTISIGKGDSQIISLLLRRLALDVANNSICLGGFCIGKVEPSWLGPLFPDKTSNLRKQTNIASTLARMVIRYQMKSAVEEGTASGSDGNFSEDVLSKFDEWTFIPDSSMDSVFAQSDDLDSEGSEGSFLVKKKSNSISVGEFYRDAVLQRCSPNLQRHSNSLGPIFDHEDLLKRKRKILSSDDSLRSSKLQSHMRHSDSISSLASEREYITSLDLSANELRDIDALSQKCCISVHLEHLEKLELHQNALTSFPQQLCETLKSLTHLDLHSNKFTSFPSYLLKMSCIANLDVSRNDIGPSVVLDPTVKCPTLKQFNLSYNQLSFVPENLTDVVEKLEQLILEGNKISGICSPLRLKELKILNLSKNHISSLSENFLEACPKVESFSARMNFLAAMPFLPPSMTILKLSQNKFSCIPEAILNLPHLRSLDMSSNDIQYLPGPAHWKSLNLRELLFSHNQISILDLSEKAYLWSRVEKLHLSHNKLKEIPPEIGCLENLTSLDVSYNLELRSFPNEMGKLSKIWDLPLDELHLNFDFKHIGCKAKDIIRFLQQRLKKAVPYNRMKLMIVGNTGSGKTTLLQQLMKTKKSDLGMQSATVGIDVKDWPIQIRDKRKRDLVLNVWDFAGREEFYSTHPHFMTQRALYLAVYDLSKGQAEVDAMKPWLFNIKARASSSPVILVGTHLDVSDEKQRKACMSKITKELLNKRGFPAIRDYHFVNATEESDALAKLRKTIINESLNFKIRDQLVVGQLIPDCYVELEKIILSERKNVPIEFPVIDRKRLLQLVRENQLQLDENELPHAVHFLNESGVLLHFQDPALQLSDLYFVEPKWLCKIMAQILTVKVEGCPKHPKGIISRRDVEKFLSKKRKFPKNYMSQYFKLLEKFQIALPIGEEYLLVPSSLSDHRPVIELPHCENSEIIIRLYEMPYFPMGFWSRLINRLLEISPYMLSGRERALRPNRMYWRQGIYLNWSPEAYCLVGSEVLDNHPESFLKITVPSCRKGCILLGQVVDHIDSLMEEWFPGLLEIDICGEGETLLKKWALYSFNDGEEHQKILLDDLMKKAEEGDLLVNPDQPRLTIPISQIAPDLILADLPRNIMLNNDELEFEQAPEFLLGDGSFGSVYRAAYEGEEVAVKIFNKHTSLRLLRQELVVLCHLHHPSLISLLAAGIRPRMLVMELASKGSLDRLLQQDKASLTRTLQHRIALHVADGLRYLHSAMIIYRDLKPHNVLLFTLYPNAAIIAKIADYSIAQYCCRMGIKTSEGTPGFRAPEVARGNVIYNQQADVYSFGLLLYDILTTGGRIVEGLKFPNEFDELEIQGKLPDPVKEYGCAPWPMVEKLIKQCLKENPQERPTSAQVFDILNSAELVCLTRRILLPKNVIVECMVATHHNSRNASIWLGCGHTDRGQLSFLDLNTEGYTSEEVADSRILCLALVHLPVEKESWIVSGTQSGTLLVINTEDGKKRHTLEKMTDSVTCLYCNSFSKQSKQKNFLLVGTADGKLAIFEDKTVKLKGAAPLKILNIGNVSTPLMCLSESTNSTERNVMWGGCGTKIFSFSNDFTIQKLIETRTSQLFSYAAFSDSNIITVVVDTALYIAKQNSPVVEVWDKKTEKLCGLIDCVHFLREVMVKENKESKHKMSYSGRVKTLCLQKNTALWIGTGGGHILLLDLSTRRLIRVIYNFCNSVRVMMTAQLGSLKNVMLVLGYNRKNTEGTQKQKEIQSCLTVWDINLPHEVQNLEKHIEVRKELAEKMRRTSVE

Row | Ki | Compound
1 | 3.3 nM | CC(C)n1cnc(-c2n[nH]c3ccnc(NC4CCOCC4)c23)c1 [Compound 6, 3-(1-isopropyl-1H-imidazol-4-yl)-N-(tetrahydro-2H-pyran-4-yl)-1H-pyrazolo[4,3-c]pyridin-4-amine]
2 | 3.8 nM | CC(C)Nc1nccc2[nH]nc(-c3cc(C4CCOCC4)ncn3)c12 [Compound 47, N-isopropyl-3-(6-(tetrahydro-2H-pyran-4-yl)pyrimidin-4-yl)-1H-pyrazolo[4,3-c]pyridin-4-amine]
3 | 23.2 nM | CC(C)S(=O)(=O)c1ccnc(-c2n[nH]c3ccnc(NC4CCOCC4)c23)c1 [Compound 75, 3-(4-(isopropylsulfonyl)pyridin-2-yl)-N-(tetrahydro-2H-pyran-4-yl)-1H-pyrazolo[4,3-c]pyridin-4-amine]
4 | 2.3 nM | CC(C)Nc1nccc2[nH]nc(-c3cc(C#N)ccn3)c12 [Compound 31, 2-(4-(isopropylamino)-1H-pyrazolo[4,3-c]pyridin-3-yl)isonicotinonitrile]
5 | 4.4 nM | CC(C)Nc1nccc2[nH]nc(-c3cn(C(C)C)nn3)c12 [Compound 7, N-isopropyl-3-(1-isopropyl-1H-1,2,3-triazol-4-yl)-1H-pyrazolo[4,3-c]pyridin-4-amine]
6 | 3.7 nM | CC(C)Nc1nccc2[nH]nc(-c3cc(-c4ccnn4C)ccn3)c12 [Compound 36, N-isopropyl-3-(4-(1-methyl-1H-pyrazol-5-yl)pyridin-2-yl)-1H-pyrazolo[4,3-c]pyridin-4-amine]
7 | 22.6 nM | FC(F)(F)c1cc(-c2n[nH]c3ccnc(NC4CC5CCC(C4)O5)c23)ncn1 (stereo not drawn) [Compound 77, N-(8-oxabicyclo[3.2.1]octan-3-yl)-3-(6-(trifluoromethyl)pyrimidin-4-yl)-1H-pyrazolo[4,3-c]pyridin-4-amine]
8 | 0.4 nM | FC(F)(F)c1ccnc(-c2n[nH]c3ccnc(NC4CCOCC4)c23)c1 [Compound 23, N-(tetrahydro-2H-pyran-4-yl)-3-(4-(trifluoromethyl)pyridin-2-yl)-1H-pyrazolo[4,3-c]pyridin-4-amine]
9 | 39.9 nM | Cc1cc2[nH]nc(-c3cc(C(F)(F)F)ccn3)c2c(NC2CCOCC2)n1 [Compound 51, 6-methyl-N-(tetrahydro-2H-pyran-4-yl)-3-(4-(trifluoromethyl)pyridin-2-yl)-1H-pyrazolo[4,3-c]pyridin-4-amine]
10 | 22.9 nM | FC1(F)CCC(Nc2nccc3[nH]nc(-c4cc(C(F)(F)F)ncn4)c23)CC1 [Compound 66, N-(4,4-difluorocyclohexyl)-3-(6-(trifluoro-methyl)pyrimidin-4-yl)-1H-pyrazolo[4,3-c]pyridin-4-amine]
11 | 1.4 nM | FC1(F)CN(c2ccnc(-c3n[nH]c4ccnc(NC5CCOCC5)c34)c2)CC(F)(F)O1 [Compound 61, 3-(4-(2,2,6,6-tetrafluoro-morpholino)pyridin-2-yl)-N-(tetrahydro-2H-pyran-4-yl)-1H-pyrazolo[4,3-c]pyridin-4-amine]
12 | 3.9 nM | CC(C)Nc1nccc2[nH]nc(-c3cc(C4CCOCC4)ccn3)c12 [Compound 39, N-isopropyl-3-(4-(tetrahydro-2H-pyran-4-yl)pyridin-2-yl)-1H-pyrazolo[4,3-c]pyridin-4-amine]
13 | 4.4 nM | CC(C)Nc1nccc2[nH]nc(-c3cc(C4CCCO4)ccn3)c12 (stereo not drawn) [Compound 53, N-isopropyl-3-(4-(tetrahydrofuran-2-yl)pyridin-2-yl)-1H-pyrazolo[4,3-c]pyridin-4-amine]
14 | 5.2 nM | CC(C)Nc1nccc2[nH]nc(-c3cn(C)nn3)c12 [Compound 8, N-isopropyl-3-(1-methyl-1H-1,2,3-triazol-4-yl)-1H-pyrazolo[4,3-c]pyridin-4-amine]
15 | 20.2 nM | FC(F)(F)c1cc(-c2n[nH]c3ccnc(NCC4CC4)c23)ncn1 [Compound 65, N-(cyclopropylmethyl)-3-(6-(trifluoromethyl)pyrimidin-4-yl)-1H-pyrazolo[4,3-c]pyridin-4-amine]
16 | 3.1 nM | CC(C)Nc1nccc2[nH]nc(-c3cc(-c4cccnc4F)ccn3)c12 [Compound 37, 3-(2-fluoro-[3,4′-bipyridin]-2′-yl)-N-isopropyl-1H-pyrazolo[4,3-c]pyridin-4-amine]
17 | 3.8 nM | N#Cc1ccnc(-c2n[nH]c3ccnc(NC4CCOCC4)c23)c1 [Compound 26, 2-(4-((tetrahydro-2H-pyran-4-yl)amino)-1H-pyrazolo[4,3-c]pyridin-3-yl)isonicotinonitrile]
18 | 3.1 nM | c1ccc(-c2n[nH]c3ccnc(NC4CCOCC4)c23)nc1 [Compound 17, 3-(pyridin-2-yl)-N-(tetrahydro-2H-pyran-4-yl)-1H-pyrazolo[4,3-c]pyridin-4-amine]

Row | Ki | Compound
19 | 11 nM | CC(C)Nc1nccc2[nH]nc(-c3ccccn3)c12 [Compound 13, N-isopropyl-3-(pyridin-2-yl)-1H-pyrazolo[4,3-c]pyridin-4-amine]
20 | 1.6 nM | CC(C)Nc1nccc2[nH]nc(-c3cc(N4CCOCC4)ccn3)c12 [Compound 3, N-isopropyl-3-(4-morpholinopyridin-2-yl)-1H-pyrazolo[4,3-c]pyridin-4-amine]
21 | 78.5 nM | CC(C)Nc1nccc2[nH]nc(-c3nccc(N4CCOCC4)n3)c12 [Compound 2, N-isopropyl-3-(4-morpholinopyrimidin-2-yl)-1H-pyrazolo[4,3-c]pyridin-4-amine]
22 | 13.1 nM | CCNc1nccc2[nH]nc(-c3cn(C(C)C)nn3)c12 [Compound 9, N-ethyl-3-(1-isopropyl-1H-1,2,3-triazol-4-yl)-1H-pyrazolo[4,3-c]pyridin-4-amine]
23 | 1.6 nM | CC(C)Nc1nccc2[nH]nc(-c3cc(C(F)(F)F)ccn3)c12 [Compound 20, N-isopropyl-3-(4-(trifluoromethyl)pyridin-2-yl)-1H-pyrazolo[4,3-c]pyridin-4-amine]
24 | 20.9 nM | CC(C)Nc1nccc2[nH]nc(-c3ccncn3)c12 [Compound 15, N-isopropyl-3-(pyrimidin-4-yl)-1H-pyrazolo[4,3-c]pyridin-4-amine]
25 | 37.2 nM | CN(C)C(=O)c1ccnc(-c2n[nH]c3ccnc(NC4CCOCC4)c23)c1 [Compound 52, N,N-dimethyl-2-(4-((tetrahydro-2H-pyran-4-yl)amino)-1H-pyrazolo[4,3-c]pyridin-3-yl)isonicotinamide]
26 | 23.3 nM | CC1CC(Nc2nccc3[nH]nc(-c4cc(C(F)(F)F)ncn4)c23)CC(C)O1 (stereo not drawn) [Compound 68, N-(2,6-dimethyltetrahydro-2H-pyran-4-yl)-3-(6-(trifluoromethyl)pyrimidin-4-yl)-1H-pyrazolo[4,3-c]pyridin-4-amine]
27 | 66.3 nM | Cc1cc2[nH]nc(-c3cc(C(F)(F)F)ncn3)c2c(NC2CCOCC2)n1 [Compound 57, 6-methyl-N-(tetrahydro-2H-pyran-4-yl)-3-(6-(trifluoromethyl)pyrimidin-4-yl)-1H-pyrazolo[4,3-c]pyridin-4-amine]
28 | 8.4 nM | CC(C)Nc1nccc2[nH]nc(-c3cc(C4CCN(C)CC4)ccn3)c12 [Compound 40, N-isopropyl-3-(4-(1-methylpiperidin-4-yl)pyridin-2-yl)-1H-pyrazolo[4,3-c]pyridin-4-amine]
29 | 14.2 nM | CCNc1nccc2[nH]nc(-c3cc(C#N)ccn3)c12 [Compound 25, 2-(4-(ethylamino)-1H-pyrazolo[4,3-c]pyridin-3-yl)isonicotinonitrile]
30 | 20.3 nM | Cc1nc(-c2n[nH]c3ccnc(NC4CCC(F)(F)CC4)c23)cc(C(F)(F)F)n1 [Compound 67, N-(4,4-difluorocyclohexyl)-3-(2-methyl-6-(trifluoromethyl)pyrimidin-4-yl)-1H-pyrazolo[4,3-c]pyridin-4-amine]
31 | 1.8 nM | Cc1cccc(-c2n[nH]c3ccnc(NC4CCOCC4)c23)n1 [Compound 28, 3-(6-methylpyridin-2-yl)-N-(tetrahydro-2H-pyran-4-yl)-1H-pyrazolo[4,3-c]pyridin-4-amine]
32 | 644 nM | Cc1cc2[nH]nc(-c3cc(C(=O)N(C)C)ccn3)c2c(NC2CCOCC2)n1 [Compound 60, N,N-dimethyl-2-(6-methyl-4-((tetrahydro-2H-pyran-4-yl)amino)-1H-pyrazolo[4,3-c]pyridin-3-yl)isonicotinamide]
33 | 1 nM | Cc1nccc(-c2n[nH]c3ccnc(NC4CCOCC4)c23)n1 [Compound 33, 3-(2-methylpyrimidin-4-yl)-N-(tetrahydro-2H-pyran-4-yl)-1H-pyrazolo[4,3-c]pyridin-4-amine]
34 | 213 nM | CC(C)Nc1nccc2[nH]nc(-c3nc(C4CC4)n(C)n3)c12 [Compound 42, 3-(5-cyclopropyl-1-methyl-1H-1,2,4-triazol-3-yl)-N-isopropyl-1H-pyrazolo[4,3-c]pyridin-4-amine]
35 | 16.6 nM | Cc1cc(C(=O)N(C)C)cc(-c2n[nH]c3ccnc(NC4CCOCC4)c23)n1 [Compound 64, N,N,2-trimethyl-6-(4-((tetrahydro-2H-pyran-4-yl)amino)-1H-pyrazolo[4,3-c]pyridin-3-yl)isonicotinamide]
36 | 152 nM | CCNc1nccc2[nH]nc(-c3ccncn3)c12 [Compound 19, N-ethyl-3-(pyrimidin-4-yl)-1H-pyrazolo[4,3-c]pyridin-4-amine]
